Columns and labels:
Homo sapiens = organism: Homo sapiens; experiment: Protac activity at E3 Ubiquitin-protein ligase/Focal adhesion kinase in human PC3 cells assessed as induction of FAK protein degradation by immunoblotting analysis relative to control; type: cell-based
cells = settings: Homo sapiens, PC-3

Compound	Emax (Homo sapiens) [%]	DC50 (cells) [nM]
CNC(=O)c1ccc(Nc2ncc(C(F)(F)F)c(NCc3nccnc3N(C)S(C)(=O)=O)n2)cc1	0	–
CN(c1cccc(CNc2nc(Nc3ccc(OCCOCCOCCOCCOCCC(=O)NCCOc4cccc5c4C(=O)N(C4CCC(=O)NC4=O)C5=O)cc3)ncc2C(F)(F)F)c1)S(C)(=O)=O (stereo unspecified)	87	–
CN(c1cccc(CNc2nc(Nc3ccc(OCCOCCOCCC(=O)NCCOc4cccc5c4C(=O)N(C4CCC(=O)NC4=O)C5=O)cc3)ncc2C(F)(F)F)c1)S(C)(=O)=O (stereo unspecified)	99	26.7
Cc1ncsc1-c1ccc(CNC(=O)[C@@H]2C[C@@H](O)CN2C(=O)[C@@H](NC(=O)CCOCCOCCOc2ccc(Nc3ncc(C(F)(F)F)c(NCc4cccc(N(C)S(C)(=O)=O)c4)n3)cc2)C(C)(C)C)cc1	99	–
Cc1ncsc1-c1ccc(CNC(=O)[C@@H]2C[C@@H](O)CN2C(=O)[C@@H](NC(=O)CCOCCCOc2ccc(Nc3ncc(C(F)(F)F)c(NCc4cccc(N(C)S(C)(=O)=O)c4)n3)cc2)C(C)(C)C)cc1	99	–
Cc1ncsc1-c1ccc(CNC(=O)[C@@H]2C[C@@H](O)CN2C(=O)[C@@H](NC(=O)COCCOc2ccc(Nc3ncc(C(F)(F)F)c(NCc4cccc(N(C)S(C)(=O)=O)c4)n3)cc2)C(C)(C)C)cc1	99	–
CN(c1cccc(CNc2nc(Nc3ccc(OCCCOCCC(=O)NCCOc4cccc5c4C(=O)N(C4CCC(=O)NC4=O)C5=O)cc3)ncc2C(F)(F)F)c1)S(C)(=O)=O (stereo unspecified)	99	–
Cc1ncsc1-c1ccc(CNC(=O)[C@@H]2C[C@@H](O)CN2C(=O)[C@@H](NC(=O)CCOCCOc2ccc(Nc3ncc(C(F)(F)F)c(NCc4cccc(N(C)S(C)(=O)=O)c4)n3)cc2)C(C)(C)C)cc1	99	3.3
Cc1ncsc1-c1ccc(CNC(=O)[C@@H]2C[C@@H](O)CN2C(=O)[C@@H](NC(=O)COCCCOc2ccc(Nc3ncc(C(F)(F)F)c(NCc4cccc(N(C)S(C)(=O)=O)c4)n3)cc2)C(C)(C)C)cc1	99	–
